According to patent US20210386695A1 (priority 2020, published 2021):

What was measured:
SARS-CoV-2 PL^pro = SARS-CoV-2 PL^pro (Severe acute respiratory syndrome coronavirus 2, UniProt P0DTD1); experiment: SARS-CoV-2 PLpro protease activity, peptide substrate Z-RLRGG-AMC; assay type: biochemical
in vitro = settings: African green monkey
[1] = system: wild type SARS-CoV-2 pseudo-particles; experiment: microbe, parasite or virus in culture; assay type: cell-based; settings: Severe acute respiratory syndrome coronavirus 2, Vero C1008
[2] = system: wild type SARS-CoV-2 pseudo-particles; assay type: cell-based
[3] = system: wild type SARS-CoV-2 pseudo-particles; assay type: cell-based; remark: listed apart in the source
SARS-CoV-2 M^pro = SARS-CoV-2 M^pro (Severe acute respiratory syndrome coronavirus 2, UniProt P0DTD1); experiment: FRET based assay of SARS-CoV-2 Mpro protease activity; assay type: biochemical
[4] = read-out: inhibitory effect on the protease activity of SARS-CoV-2 PL^pro

In the case of `CCN(CC)C(=S)SSC(=S)N(CC)CC` [disulfiram], the “inhibitory effect on the protease activity of SARS-CoV-2 PL^pro” value (SARS-CoV-2 PL^pro; 1 μM disulfiram) is reported as “does not inhibit”, the inhibition at 5 µM (SARS-CoV-2 PL^pro; [4]) is reported as 21.7% and the inhibition at 10 µM (SARS-CoV-2 PL^pro; [4]) is reported as 36.3%. It also gave an inhibition at 30 µM (SARS-CoV-2 PL^pro; [4]) of 77.9%, an inhibition at 60 µM (SARS-CoV-2 PL^pro; [4]) of 99.9% and a CC50 (in vitro) of 15.7 µM. For the same compound, the EC50 [1] was 3.1 µM, the “block of viral pseudo-particles infection” value [2] was “dose-dependent manner” and the “inhibitory capacity in furin-expressing Vero E6 cells compared with Vero E6 cells” value [3] was “similar”. It also gave an inhibition at 1 µM (SARS-CoV-2 M^pro) of 16%, an inhibition at 5 µM (SARS-CoV-2 M^pro) of 80.9% and an inhibition at 10 µM (SARS-CoV-2 M^pro) of 87.1%. The “inhibition of protease activity of SARS-CoV-2 M^pro” value (SARS-CoV-2 M^pro; 30 μM disulfiram) was “full inhibition” and the “inhibition of protease activity of SARS-CoV-2 M^pro” value (SARS-CoV-2 M^pro; 60 μM disulfiram) was “full inhibition”.
